Experimental findings from patent US20240325477A1, “PROTEIN HYDROLYSATE OF MORINGA PEREGRINA SEED CAKE FOR ITS APPLICATION AS A MEDICAMENT, PROCESS FOR OBTAINING SAME AND PHARMACEUTICAL AND DERMATOLOGICAL COMPOSITIONS” (AGENCE FRANCAISE POUR LE DEVELOPPEMENT D'AL ULA, priority 2020, published 2024) are described below.

The target of one test is recombinant human furin (Homo sapiens, UniProt P09958). Briefly: Furin convertase activity, cleavage of fluorescent substrate. Type of test: biochemical. To be noted: 100 nM. The procedure: Protocol: The study was carried out using a recombinant human furin, which catalyzes cleavage of a specific fluorescent reference substrate.
Sequence of recombinant human furin (P09958 108-794): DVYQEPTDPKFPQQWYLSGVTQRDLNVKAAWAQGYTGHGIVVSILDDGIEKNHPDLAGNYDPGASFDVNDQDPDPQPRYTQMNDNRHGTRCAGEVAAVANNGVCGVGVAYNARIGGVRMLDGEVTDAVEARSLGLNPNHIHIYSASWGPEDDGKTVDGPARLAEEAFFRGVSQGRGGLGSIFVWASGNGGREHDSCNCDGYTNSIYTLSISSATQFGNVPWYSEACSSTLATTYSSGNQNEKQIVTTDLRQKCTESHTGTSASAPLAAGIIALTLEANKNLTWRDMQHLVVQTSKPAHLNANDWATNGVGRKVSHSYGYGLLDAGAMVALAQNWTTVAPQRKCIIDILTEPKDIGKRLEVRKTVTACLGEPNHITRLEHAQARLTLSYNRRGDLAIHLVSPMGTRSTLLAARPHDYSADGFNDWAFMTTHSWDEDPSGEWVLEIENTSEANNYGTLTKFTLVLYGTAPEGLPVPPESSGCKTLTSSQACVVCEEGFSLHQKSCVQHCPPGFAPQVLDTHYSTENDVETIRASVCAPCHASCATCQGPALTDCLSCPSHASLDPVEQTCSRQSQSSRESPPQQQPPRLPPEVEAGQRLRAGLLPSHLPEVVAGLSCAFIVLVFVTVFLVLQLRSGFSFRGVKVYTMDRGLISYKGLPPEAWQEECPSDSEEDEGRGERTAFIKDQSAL
100 nM decanoyl-Arg-Val-Lys-Arg-CMK was used as a reference inhibitor for the activity of furin.
The furin was pre-incubated for 10 minutes at ambient temperature in the absence (control) or in the presence of a reference product, or of increasing concentrations of the test compound:
“Peregrina protein hydrolysate”; 0.02; 0.2 and 2% (v/v).
At the end of the pre-incubation step, a furin substrate was added and the experimental conditions were incubated once again at ambient temperature away from light for 5 minutes. All of the experiments were carried out in triplicate. […]
Cleavage of the fluorescent furin substrate was monitored for 5 minutes after addition of the substrate by reading the fluorescence at 485 nm/535 nm. […]
Evaluation protocol: Cleavage of the fluorescent furin substrate was monitored for 5 minutes after addition of the substrate by recording the fluorescence at 485 nm/535 nm. […]. […] The statistical significance of the difference observed between the “Control” and “Reference product” groups was evaluated by a Student test (p<0.001). The statistical significance of the difference observed between the “Control” and “Test compound” groups was evaluated by a one-way ANOVA, followed by a Holm-Sidak test (p<0.05). […]

Test [1] deals with mouse embryo fibroblasts Balb/c 3T3 clone 31. In words: In vitro 3T3 NRU phototoxicity test. To be noted: BALB/c3T3, light or radiation study, read-out: Cl50 (the source's name). The format is cell-based.
Description: The principle of the test is the comparison of the cytotoxicity of the protein hydrolysate in accordance with Example 1 in the presence and in the absence of a non-cytotoxic dose of UVA, on cells under culture. […] The cells used were mouse embryo fibroblasts from the Balb/c 3T3 clone 31 (ATCC-CCL163) line. The positive control was a solution of chlorpromazine (CAS number: 69-09-0). The negative control was a diluent for the test and reference extract (buffered saline solution+/−1% solvent). […] The fibroblasts were trypsinized and two 96-well culture plates were inoculated in an amount of 100 μL of a 2×10^5 cells/mL (i.e. 2×10^6 cells per well) cell suspension in complete culture medium. The inoculated plates were incubated in an oven for 24 hours at 37° C., 5% CO2. At the end of the incubation, semi-confluence of the cell mat was verified. […] The spectral irradiation of the test device was measured in the wavelength range 250 to 700 nanometers with a calibrated spectroradiometer.
One of the 2 plates was irradiated with its cover at ambient temperature, and the other plate was protected from UVA and stored at ambient temperature for the irradiation period. […] The next day, the cell viability (growth, morphology, integrity of the monolayer) was evaluated by observations using a phase contrast microscope. […] The absorbances were measured at 450 nm.
In the next test the test system is DKK-1. Briefly: DKK-1 synthesis and release by normal human fibroblasts, ELISA, 48 h. Particulars: 100 nM. Type of test: cell-based. As for the experimental part: The aim of this study is to evaluate the effect of the peregrina protein hydrolysate on the synthesis and release of DKK-1 in a model compound of normal human fibroblasts in a monolayer culture.
Protocol: Human fibroblast cells were obtained from a donor. In order to carry out the experiments, the fibroblasts were cultured in a monolayer to confluence. 100 nM dexamethasone was used as a reference inducer for the synthesis and release of DKK-1. The […] were incubated for 48 hours in the absence (control) or in the presence of the reference product or of the test product: “peregrina protein hydrolysate”: 0.01%; 0.1% and 0.5% (v/v).
At the end of the incubation, the incubation media were removed in order to carry out the DKK-1 liberation method. […]
At the end of the incubation period of 48 hours, the DKK-1 liberated into the incubation medium was quantified with the aid of a sensitive and specific ELISA kit.
At the end of the incubation period, the proteins contained in the cell lysates were quantified with the aid of a spectrocolorimetric method (Bradford method). […]
The level of significance between the “control” and the “reference product” was evaluated with the aid of a Student test (p<0.05).
The level of significance between the “Control” and the “test product” was evaluated by a single factor analysis of variance (one-way ANOVA) followed by a Holm-Sidak test (p<0.05).
(ELISA stands for enzyme-linked immunosorbent assay.)

Converted amounts (≈) assume the structure as drawn. Where two headings read alike, the source gives them in different places. The star is where a group is joined. Decanoyl = CCCCCCCCCC(=O)*; CH2Cl = ClC*

Regarding “decanoyl-Arg-Val-Lys-Arg-CMK (Decanoyl-RVKR-CH2Cl)”, the “Inhibition of the activity of furin” value with recombinant human furin came out at 97.9%.
Consider `CN(C)CCCN1c2ccccc2Sc2ccc(Cl)cc21` [Chlorpromazine, chlorpromazine], for which the IC50 in test [1] (in the absence of UVA) lay in the range of 7 to 90 µg/mL (≈ 22 to 282 µM); in test [1] (in the presence of UVA), 0.1 to 2 µg/mL.
Regarding `C[C@@H]1C[C@H]2[C@@H]3CCC4=CC(=O)C=C[C@]4(C)[C@@]3(F)[C@@H](O)C[C@]2(C)[C@@]1(O)C(=O)CO` [Dexamethasone, dexamethasone], the “Increase of the DKK-1 liberated compared with the Control” value with DKK-1 turned out to be 181.8%.
